{"source": "patent US20260216239A1", "about": "(Arizona Board of Regents on Behalf of the University of …, priority 2020, published 2026)", "test_system": "Atheris nitschei venom", "assay": "Thrombelastography in human plasma of venom procoagulant activity after isolated exposure of venom to compounds", "type": "biochemical", "settings": "venom 1 μg/mL in plasma", "description": "All venom solutions without or with chemical additions in isolation were added as a 1% addition to the plasma mix used in our thrombelastographic system (see, Nielsen, V. G.; et al., Biometals 2016, 29, 913-919; Nielsen, V. G.; Losada, P. A. Basic Clin. Pharmacol. Toxicol. 2017, 120, 207-212; Nielsen, V. G.; Frank, N. J. Thromb. Thrombolysis 2019, 47, 533-539; Nielsen, V. G.; Bazzell, C. M. J. Thromb. Thrombolysis 2017, 43, 203-208; Nielsen, V. G.; Matika, R. W. Hum. Exp. Toxicol. 2017, 36, 727-733; Nielsen, V. G.; et al., Toxins 2018, 10, 322; Nielsen, V. G.; et al., Biometals 2018, 31, 51-59; Nielsen, V. G.; Frank, N. et al., Biometals 2018, 31, 951-959; Nielsen, V. G.; et al., Toxins 2019, 11, 94; Nielsen, V. G.; Frank, N. Hum Exp. Toxicol. 2019, 38, 216-226; Nielsen, V. G. J. Thromb. Thrombolysis 2019, 48, 256-262; Nielsen, V. G.; et al., Blood Coagul. Fibrinolysis 2019, 30, 379-384; Nielsen, V. G. J. Thromb. Thrombolysis 2019, 47, 73-79; Gessner, G.; et al., Eur. J. Pharmacol. 2017, 815, 33-41). […] The thrombelastographic model describes coagulation kinetics with the following three variables: time to maximum thrombus generation (TMRTG, minutes—a measure of time to onset of coagulation), maximum rate of thrombus generation (MRTG, dynes/cm^2/s—a measure of the velocity of clot growth) and total thrombus generation (TTG, dynes/cm^2—a measure of clot strength).\nThe volumes of subsequently described plasmatic and other additives summed to a final volume of 360 μL. Samples were composed of 320 μL of plasma; 16.4 μL of PBS, 20 μL of 200 mM CaCl2), and 3.6 μL of PBS, RuCl3, or venom solution mixture, which were pipetted into a disposable cup in a Thrombelastograph® hemostasis system (Model 5000, Haemonetics Inc., Braintree, MA, USA) at 37° C., and then rapidly mixed by moving the cup up against and then away from the plastic pin five times. The PBS, RuCl3, or venom solution mixtures was always the last constituent added prior to mixing and data collection. The following viscoelastic parameters described previously (see, Nielsen, V. G.; et al., Biometals 2016, 29, 913-919; Nielsen, V. G.; Losada, P. A. Basic Clin. Pharmacol. Toxicol. 2017, 120, 207-212; Nielsen, V. G.; Frank, N. J. Thromb. Thrombolysis 2019, 47, 533-539; Nielsen, V. G.; Bazzell, C. M. J. Thromb. Thrombolysis 2017, 43, 203-208; Nielsen, V. G.; Matika, R. W. Hum. Exp. Toxicol. 2017, 36, 727-733; Nielsen, V. G.; et al., Toxins 2018, 10, 322; Nielsen, V. G.; et al., Biometals 2018, 31, 51-59; Nielsen, V. G.; Frank, N. et al., Biometals 2018, 31, 951-959; Nielsen, V. G.; et al., Toxins 2019, 11, 94; Nielsen, V. G.; Frank, N. Hum Exp. Toxicol. 2019, 38, 216-226; Nielsen, V. G. J. Thromb. Thrombolysis 2019, 48, 256-262; Nielsen, V. G.; et al., Blood Coagul. Fibrinolysis 2019, 30, 379-384; Nielsen, V. G. J. Thromb. Thrombolysis 2019, 47, 73-79) were measured: time to maximum rate of thrombus generation (TMRTG): this is the time interval (minutes) observed prior to maximum speed of clot growth; maximum rate of thrombus generation (MRTG): this is the maximum velocity of clot growth observed (dynes/cm^2/s); and total thrombus generation (TTG, dynes/cm^2), the final viscoelastic resistance observed after clot formation. Data were collected until the clot strength reached its final plateau (maximum amplitude) that was stable for 3 min.", "key": {"[1]": {"settings": "venom exposed 5 min to 100 μM RuCl3 in PBS"}}}
{"smiles": "[C-]#[O+].[C-]#[O+].[C-]#[O+].[C-]#[O+].[C-]#[O+].[C-]#[O+].[Cl][Ru][Cl].[Cl][Ru][Cl]", "note": "[CORM-2, tricarbonyldichlororuthenium(II) dimer]", "values": [{"measurement": "procoagulant activity of venom", "setting": "venom exposed 5 min to 100 μM CORM-2 in 5% human albumin", "value": "uninhibited"}, {"measurement": "procoagulant activity of venom", "setting": "venom exposed 5 min to 100 μM CORM-2 in PBS", "value": "significantly attenuated"}]}
{"smiles": "[Cl][Ru]([Cl])[Cl]", "note": "[RuCl3, ruthenium(III) chloride]", "values": [{"measurement": "maximum rate of thrombus generation (MRTG)", "setting": "[1]", "value": "significant increase"}, {"measurement": "time to maximum rate of thrombus generation (TMRTG)", "setting": "[1]", "value": "very diminutive increase"}, {"measurement": "total thrombus generation (TTG)", "setting": "[1]", "value": "significant increase"}]}
